Laboratory results from patent US12378216B2, “Heteroaryl(heterocyclyl)methanol compounds useful in the treatment of hyperglycaemia” (ATROGI AB, priority 2019, dated 2025).
Structures can show the parent of a compound that is named as a salt.

What was measured:
[1] = system: L6-myotubes; experiment: Glucose uptake in differentiated L6-myotubes (3H-2-deoxy-glucose); format: cell-based; settings: for Biological example 3: Table 2, the assay of Biological Example 1 (glucose uptake, L6-myotubes, agonist 1×10^−5, relative to isoproterenol); for Biological example 1 (glucose uptake, activity compared to that of isoproterenol): L6-myotubes, agonist final concentration 1×10^−5, relative to isoproterenol, Table 1
Method: (§1) L6-myoblasts were grown in Dulbecco's Modified Eagle's Medium (DMEM) containing 4.5 g/I glucose supplemented with 10% fetal bovine serum, 2 mM L-Glutamine, 50 U/ml penicillin, 50 μg/ml streptomycin and 10 mM HEPES. Cells were plated at 1×10^5 cells per ml in 24-well plates. After reaching 90% confluence the cells were grown in medium containing 2% FBS for 7 days where upon cells differentiated into myotubes.
Differentiated L6-myotubes were serum-starved overnight in medium containing 0.5% fatty-acid free BSA and stimulated with agonist, final concentration 1×10^−5. After 1 h 40 min cells were washed with warm, glucose free medium or PBS and another portion of agonist was added to glucose free medium. After 20 min the cells were exposed to 50 nM ^3H-2-deoxy-glucose for another 10 min before washed in ice cold glucose free medium or PBS and lysed in 0.2 M NaOH for 1 h in 60° C.

[2] = system: Intracellular cAMP levels; experiment: Measurement of intracellular cAMP levels in differentiated L6 cells (alpha screen cAMP kit); format: cell-based; settings: for Biological example 4: Table 2, the assay of Biological Example 2 (intracellular cAMP, agonist 1×10-^5, relative to isoproterenol); for Biological example 2 (intracellular cAMP levels, activity compared to that of isoproterenol): differentiated cells, agonist final concentration 1×10-^5, 15 min, relative to isoproterenol, Table 1
Method: as §1
Differentiated cells were serum-starved overnight and stimulated with agonist, final concentration 1×10-^5, for 15 min in stimulation buffer (HBSS supplemented with 1% BSA, 5 mM HEPES and 1 mM IBMX, pH 7.4) The medium was then aspirated and to end the reaction 100 μL of 95% EtOH was added to each well of a 24-well plate and cells were kept in −20° C. over night. The EtOH was let to evaporate and 500 μL of lysis buffer (1% BSA, 5 mM HEPES and 0.3% Tween-20, pH 7.4) was added to each well before put in −80° C. for 30 min and then kept in −20° C. Intracellular cAMP levels were detected using an alpha screen cAMP kit (6760635D from Perkin Elmer). The activity for each compound is compared to that of isoproterenol.

| Compound | Biological example 3 [1] | Biological example 4 [2] | Biological example 1 (glucose uptake, activity compared to that of isoproterenol) [1] | Biological example 2 (intracellular cAMP levels, activity compared to that of isoproterenol) [2] |
| --- | --- | --- | --- | --- |
| CCC[C@@H]1CCCC[C@H]([C@H](O)c2cncc(F)c2)N1 [Example 13, (R)-(5-Fluoropyridin-3-yl)((2R,7R)-7-propylazepan-2-yl)methanol] | − (less than 25%) | − (less than 25%) | – | – |
| CCC[C@@H]1CC[C@H]([C@H](O)c2cncc(F)c2)N1.O=C(O)/C=C\C(=O)O [Example 3, (R)-(5-Fluoropyridin-3-yl)((2R,5R)-5-propylpyrrolidin-2-yl)methanol maleate] | – | – | +++ (more than 75% of that of isoproterenol) | − (less than 25%) |
| CC1(C)C[C@@H]([C@H](O)c2cncc(F)c2)N1 [Example 10, (R)-((S)-4,4-Dimethylazetidin-2-yl)(5-fluoropyridine-3-yl)methanol dihydrochloride] | + (between 50 and 25%) | − (less than 25%) | – | – |
| CC1(C)C[C@H]([C@@H](O)c2cncc(F)c2)N1 [Example 12, (S)-((R)-4,4-Dimethylazetidin-2-yl)(5-fluoropyridin-3-yl)methanol dihydrochloride] | + (between 50 and 25%) | − (less than 25%) | – | – |
| CC1(C)CC[C@H]([C@@H](O)c2cncc(O)c2)N1 [Example 8, 5-((S)-((R)-5,5-dimethylpyrrolidin-2-yl)(hydroxy)methyl)pyridin-3-ol] | – | – | + (between 50 and 25%) | − (less than 25%) |
| CCC[C@H]1CCC[C@H]([C@@H](O)c2cncc(F)c2)N1 [Example 2, (S)-(5-Fluoropyridin-3-yl)((2R,6S)-6-propylpiperidin-2-yl)methanol] | – | – | − (less than 25%) | − (less than 25%) |
| CC1(C)CC[C@H]([C@H](O)c2cncc(O)c2)N1 [Example 7] | – | – | ++ (between 75 and 50%) | − (less than 25%) |
| CCC[C@@H]1CC[C@H]([C@@H](O)c2cncc(F)c2)N1.O=C(O)/C=C\C(=O)O [Example 4, (S)-(5-Fluoropyridin-3-yl)((2R,5R)-5-propylpyrrolidin-2-yl)methanol maleate] | – | – | ++ (between 75 and 50%) | − (less than 25%) |
| CCC[C@@H]1CCCC[C@H]([C@@H](O)c2cncc(F)c2)N1 [Example 14, (S)-(5-Fluoropyridin-3-yl)((2R,7R)-7-propylazepan-2-yl)methanol] | − (less than 25%) | − (less than 25%) | – | – |
| CC1(C)C[C@@H]([C@@H](O)c2cncc(F)c2)N1 [Example 11, (S)-((S)-4,4-Dimethylazetidin-2-yl) (5-fluoropyridine-3-yl) methanol dihydrochloride] | + (between 50 and 25%) | − (less than 25%) | – | – |
| CCC[C@H]1CCCC[C@@H]([C@@H](O)c2cncc(F)c2)N1 [Example 16] | + (between 50 and 25%) | – | – | – |
| CC1(C)CC[C@H]([C@H](O)c2cncc(F)c2)N1 [Example 5, (R)-((R)-5,5-Dimethylpyrrolidin-2-yl)(5-fluoropyridin-3-yl)methanol] | – | – | +++ (more than 75% of that of isoproterenol) | − (less than 25%) |
| CC1(C)CC[C@H]([C@@H](O)c2cncc(F)c2)N1 [Example 6, (S)-((R)-5,5-Dimethylpyrrolidin-2-yl) (5-fluoropyridin-3-yl)methanol] | – | – | − (less than 25%) | − (less than 25%) |
| CC1(C)C[C@H]([C@H](O)c2cncc(F)c2)N1 [Example 9, (R)-((R)-4,4-Dimethylazetidin-2-yl)(5-fluoropyridine-3-yl)methanol dihydrochloride] | +++ (more than 75% of that of isoproterenol) | − (less than 25%) | – | – |
| CCC[C@H]1CCC[C@H]([C@H](O)c2cncc(F)c2)N1 [Example 1, (R)-(5-Fluoropyridin-3-yl)((2R,6S)-6-propylpiperidin-2-yl)methanol dihydrochloride] | – | – | − (less than 25%) | − (less than 25%) |
| CCC[C@H]1CCCC[C@@H]([C@H](O)c2cncc(F)c2)N1 [Example 15, (R)-(5-Fluoropyridin-3-yl)(S,7S)-7-propylazepan-2-yl)methanol dihydrochloride] | ++ (between 75 and 50%) | – | – | – |
